The results in this text go back to the NIST ThermoML archive (doi:10.1016/j.fluid.2008.01.010).

One may read the mass density as mass per unit of volume. By refractive index is commonly meant the speed of light in vacuum divided by its phase velocity in the sample.

For series [1] the following is noted: 298.15 K; 101.33 kPa; Liquid.
Series [2] in a line: refractive index (Na D-line) (dimensionless). To be noted: 298.15 K; 101.33 kPa; Liquid; Standard Abbe refractometry.

Structures are written as SMILES. Numbers after ± are expanded uncertainties.

As to `CC(C)CO` [2-methyl-1-propanol], the mass density in series [1] is listed as 797.83 ± 0.48 kg/m3. Besides, the refractive index in series [2] is recorded as 1.3938 ± 0.0005.
On the same counts, the results for `CC(=O)OCC(C)C` [2-methylpropyl ethanoate] are 866.12 ± 0.67 kg/m3 and 1.3876 ± 0.0006.
The matching figures for `OCC(O)CO` [glycerol]: 1258.5 ± 0.6 kg/m3 and 1.4726 ± 0.0005.
